Where a name gives a salt, the structure may show the parent alone. Read-outs that look alike come from different tables or passages of the source.
Columns and labels:
in vitro [1] = assay: in vitro; set-up: metabolic stability in human liver microsomes with NADPH-regenerating system, parent compound by UHPLC-MS/MS; conditions: human liver microsomes
Protocol: (§1) Incubation of the test compounds in mouse or human liver microsomes (Xenotech, Lenexa, KS, USA) was done with a previously described method[55] with modifications. We tested the metabolic stability of PRE-084 and PGB, the latter of which was used as a control because of its poor hepatic metabolism. Briefly, the drugs were incubated in 96-well plates at a concentration of 1 μM and at 37 °C during 1 h under standard incubation conditions: sodium-potassium phosphate buffer (50 mM, pH 7.4), MgCl2 (3 mM), the NADPH-regenerating system and cytochrome P450 content (0.3 nmol/mL). Aliquots of the reaction mixture were obtained at 0, 10, 20, 40 and 60 min with an equal volume of cold acetonitrile. The assay was done in a robotic [compound left out] handling system (Freedom Evo Tecan, Männedorf, Switzerland). Upon centrifugation of the resulting mixture, supernatants were analyzed with a generic ultra-high performance [compound left out] chromatography–tandem mass spectrometry method. For the in vitro metabolic stability in liver microsomes, Ln-linear plots of the percentage of compound remaining based on chromatographic peak area versus time were generated, and the slope was calculated by linear fitting of the curve. The in vitro metabolic t1/2 was estimated with the equation 0.693/k where k is the biotransformation rate constant and corresponds to the slope of the ln-linear curve. Liver microsome Cl int was calculated with the equation [drawing 1]

in vitro [2] = assay: in vitro; set-up: metabolic stability in mouse liver microsomes with NADPH-regenerating system, parent compound by UHPLC-MS/MS; conditions: mouse liver microsomes
Protocol: as §1

sigma-1 receptor = target: T1, sigma-1 receptor (Mus musculus, UniProt O55242); assay: [3H](+)-pentazocine competition radioligand binding in mouse brain membranes
T1 construct: gene Sigmar1; native receptor in wild-type mouse brain crude synaptosomal membranes (P2 fraction)
T1 sequence (O55242 whole entry): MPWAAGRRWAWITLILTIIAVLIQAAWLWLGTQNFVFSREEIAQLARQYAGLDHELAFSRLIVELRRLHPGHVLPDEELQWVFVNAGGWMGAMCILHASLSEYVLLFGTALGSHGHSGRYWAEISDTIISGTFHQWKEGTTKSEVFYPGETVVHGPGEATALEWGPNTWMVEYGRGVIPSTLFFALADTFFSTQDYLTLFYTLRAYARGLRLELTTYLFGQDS

in vitro [3] = assay: in vitro; set-up: metabolic stability in liver microsomes with NADPH, UHPLC-MS/MS quantitation of parent compound; conditions: for remaining at 1 h, 1 µM: pH 7.4, liver microsomes, read-out: % parent compound remaining at 1 h; for half-life at 1 µM / microsomal CLint at 1 µM: pH 7.4, liver microsomes; for microsomal CLint at 1 µM: read-out: Cl int (µL/min/mg protein)
Protocol: as §1

O=C(OCCN1CCOCC1)C1(c2ccccc2)CCCCC1 [PRE, 2-(4-morpholinethyl)1-phenylcyclohexanecarboxylate) hydrochloride]
remaining at 1 h, 1 µM (in vitro [1]; pH 7.4, liver microsomes, read-out: % parent compound remaining at 1 h (human)): 4 ± 0.58% | microsomal CLint at 1 µM (in vitro [1]; pH 7.4, liver microsomes, read-out: Cl int (human)): 103 ± 5 µL/min/mg | half-life at 1 µM (in vitro [1]; pH 7.4, liver microsomes, read-out: t1/2 (human)): 0.217 ± 0.00967 h | remaining at 1 h, 1 µM (in vitro [2]; pH 7.4, liver microsomes, read-out: % parent compound remaining at 1 h (mouse)): 0% | microsomal CLint at 1 µM (in vitro [2]; pH 7.4, liver microsomes, read-out: Cl int (mouse)): 949 ± 203 µL/min/mg | half-life at 1 µM (in vitro [2]; pH 7.4, liver microsomes, read-out: t1/2 (mouse)): 3 ± 0.67 min | IC50 (sigma-1 receptor): 188 ± 18.8 nM

CC(C)C[C@H](CN)CC(=O)O [Pregabalin]
remaining at 1 h, 1 µM (in vitro [3]; human liver microsomes): 95 ± 2.96% | remaining at 1 h, 1 µM (in vitro [3]; mouse liver microsomes): 97 ± 2.67% | half-life at 1 µM (in vitro [3]; human liver microsomes): 17.9 ± 10.8 h | microsomal CLint at 1 µM (in vitro [3]; human liver microsomes): 2.3 ± 0.94 µL/min/mg | half-life at 1 µM (in vitro [3]; mouse liver microsomes): 10 ± 3.03 h | microsomal CLint at 1 µM (in vitro [3]; mouse liver microsomes): 4.5 ± 1.2 µL/min/mg

— publication PMC5122889, “Sigma-1 Receptor Agonism Promotes Mechanical Allodynia After Priming the Nociceptive System with Capsaicin” (Scientific Reports, 2016)
